From patent publication US20260199484A1, “PROTAC DEGRADERS OF MLLT1 AND/OR MLLT3” (DARK BLUE THERAPEUTICS LTD, priority 2024, published 2026)

Assays:
[1] = biological target: T1, MLLT1 (Homo sapiens, UniProt Q03111); assay: MLLT1 HTRF IC50 determination assay (H3K9cro peptide displacement); format: binding
T1 sequence (Q03111 1-559): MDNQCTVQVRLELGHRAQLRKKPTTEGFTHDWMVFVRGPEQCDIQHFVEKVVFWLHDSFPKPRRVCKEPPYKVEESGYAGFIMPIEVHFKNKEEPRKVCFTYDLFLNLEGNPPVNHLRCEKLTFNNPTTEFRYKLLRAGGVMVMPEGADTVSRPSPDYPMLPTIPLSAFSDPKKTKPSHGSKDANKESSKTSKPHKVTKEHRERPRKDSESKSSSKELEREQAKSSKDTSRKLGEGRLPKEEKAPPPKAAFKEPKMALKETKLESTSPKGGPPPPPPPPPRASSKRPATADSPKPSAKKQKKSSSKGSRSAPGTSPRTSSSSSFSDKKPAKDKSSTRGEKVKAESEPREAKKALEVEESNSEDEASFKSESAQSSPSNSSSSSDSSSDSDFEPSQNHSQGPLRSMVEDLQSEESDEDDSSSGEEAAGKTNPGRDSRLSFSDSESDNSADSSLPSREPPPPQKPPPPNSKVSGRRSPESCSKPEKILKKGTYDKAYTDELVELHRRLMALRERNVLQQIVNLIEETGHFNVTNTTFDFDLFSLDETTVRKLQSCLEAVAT
Source text: (§1) This procedure is intended to measure the interaction between YEATS proteins and histone peptides modified by an appropriate epigenetic mark and can be used to assay compounds which bind to the YEATS proteins and inhibit this interaction. The assay uses 6His tagged MLLT1 or MLLT3 with an anti-6His antibody conjugated with Eu^3+ chelate (donor) and a biotinylated peptide with Streptavidin conjugated XL-665 (acceptor). When the donor and acceptor labels are in close proximity, by binding of the peptide by MLLT1 or MLLT3, the excitation of the donor (337 nm) triggers a Fluorescence Resonance Energy Transfer (FRET) to the acceptor which then fluoresces at specific wavelength (665 nm).
(§2) This step optimises the protein/peptide ratio that will be used in HTRF screening assay in order to allow the best signal-to-noise ratio. Each new purified protein should be titrate this way as the signal-to-noise ratio may differ from different protein batches. Displacement assay for MLLT1 and MLLT3 was performed by using H3K9 cro peptide (ARTKQTAR(Kcrot)STGGKAPRKQLYK(biotin)).
(§3) A serial dilution of 4× solution of biotinylated peptide was prepared in assay buffer (25 mM HEPES, 20 mM NaCl, 0.05% BSA, 0.05% Tween-20, pH 7.0) covering concentrations from 3.2 μM to 0.2 nM. and 5 μL of each dilution were transferred horizontally to fill 15 columns of a white ProxiPlate-384 Plus shallow well Microplate (Perkin Elmer, USA). A sixteenth column of buffer was also included for a background reference. In parallel, a serial dilution of the 6His-tag protein of interest was prepared in the same way and 5 μL of each dilution were vertically added to the wells containing the peptide dilutions. Buffer has been transferred to the last line of the plate in order to make a no-protein reference. The microplate has been covered and incubated 1 hour at room temperature. A 2× detection mix was prepared in assay buffer by diluting streptavidin conjugated with XL-665 (610SAXLB, Cisbio Bioassays, France) to 1/2000 and anti-6His(Eu) chelate (LANCE Eu-W1024 Anti-6×His, ADO111, Perkinelmer LAS (UK)LTD) to 1/20000, 10 μL were added to each well and the plate has been incubated for 1 to 24 hours at room temperature in the dark. The plate was read in the Pherastar using the HTRF module with dual emission protocol (A=ex. 320 nm em. 665 nm, B=ex. 320 nm em. 620 nm).
(§4) The HTRF ratio was calculated as channel A/B*10000 and the specific signal as follow: specific signal=HTRF Ratio Positive signal—HTRF Ratio Negative signal (without protein). The concentrations of protein and peptide that allow the maximum specific signal without saturation were selected to perform HRTF screening assay described below.
(§5) The compounds were dissolved in DMSO at a stock concentration of 10 mM and dispensed into microplate using the Echo acoustic liquid handler (Labcyte, Beckman Coulter, USA). The assay covers a window of compound concentrations from 20 μM to 20 nM spread in 11 data points in duplicate. Solvent and compound controls were added to each plate in order to calculate the background signal.
(§6) Ten microliters of 2× mix of 6His-protein and biotinylated peptide, the concentrations were determined above, were added to the dispensed compounds and incubated for one hour at room temperature in the dark. Ten microliters of the 2× detection mix was added to each well and the plate was incubated for another hour at room temperature in the dark and the plate was read in order to calculate the HTRF specific signal. The % inhibition values as follows:
(§7) The IC50 values were determined by plotting % inhibition vs compound concentration and fitting the data to a non-linear sigmoidal dose response equation (4 parameter fit): […]

[2] = biological target: T2, MLLT3 (Homo sapiens, UniProt P42568); assay: MLLT3 HTRF IC50 determination assay (H3K9cro peptide displacement); format: binding
T2 sequence (P42568 1-568): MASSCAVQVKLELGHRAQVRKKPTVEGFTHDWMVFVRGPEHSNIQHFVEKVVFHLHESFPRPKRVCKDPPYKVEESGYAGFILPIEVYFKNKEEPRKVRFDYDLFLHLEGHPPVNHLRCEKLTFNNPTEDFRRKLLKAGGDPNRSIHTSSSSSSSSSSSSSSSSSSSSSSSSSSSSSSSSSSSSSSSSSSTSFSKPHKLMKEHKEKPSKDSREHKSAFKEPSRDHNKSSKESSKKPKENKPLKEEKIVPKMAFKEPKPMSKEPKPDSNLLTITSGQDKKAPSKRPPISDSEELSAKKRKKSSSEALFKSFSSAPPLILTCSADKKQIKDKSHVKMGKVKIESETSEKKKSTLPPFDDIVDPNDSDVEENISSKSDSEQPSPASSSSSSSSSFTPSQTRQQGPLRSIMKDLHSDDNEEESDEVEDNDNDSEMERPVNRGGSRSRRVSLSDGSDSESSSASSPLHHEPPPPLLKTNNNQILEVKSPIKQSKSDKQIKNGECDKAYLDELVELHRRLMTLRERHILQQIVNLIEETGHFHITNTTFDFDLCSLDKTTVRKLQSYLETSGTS
Source text: as §1, §2, §3, §4, §5, §6, §7

[3] = biological target: T1, MLLT1; assay: MLLT1 degradation assay in MV4-11 cells (JESS, 24 h); format: cell-based; design: endogenous in cells; host or cells: MV4-11 (ATCC CRL-9591); settings: vs DMSO control
Procedure, shortened: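 MV4-11 cells treated at 1000, 100 and 10 nM (0.1% DMSO) for 24 h at 37° C; lysates (4 ug protein) run on JESS capillary immunoassay with MLLT1 and GAPDH antibodies. Peak areas give % degradation versus DMSO, binned A (≥75%) to D (<25%).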

[4] = test system: MV4-11 cells; assay: MV4-11 cellular proliferative assay, Assay Format B (CTG 2.0, 168 h); format: cell-based; settings: Homo sapiens, Assay format B, 168 h, read-out: IC50 (MV4-11 cellular proliferative assay)
Description: MV4-11 cells at a confluency of ~50-80% was used for cell growth assay. 600 cells/well in a 384-well opaque cell culture plate (6007680; Perkin Elmer) were seeded in 40 μL of complete medium (IMDM+10% FBS+1× Penicillin-Streptomycin). Cells were incubated overnight at 37° C., 5% CO2. 10 mM DMSO stocks were prepared, cells were treated with 10 concentrations of test compounds starting from 1 uM or 100 nM, 3-fold dilution in 10 uL (5× concentration) of complete medium. Final DMSO concentration was 0.3%. Culture plates were centrifuged at 40×g, 30s. Cells were incubated with compounds for 168 h (7 days). After 7 days, 20 uL CTG 2.0 reagent (G9242; Promega) was added per well and luminescence reading was taken in Envision Xcite 2105 multimode plate reader. Data was analyzed in GraphPad Prism 10.0 and data was shown as % viability with respect to DMSO control and dose-response curves were generated using four parameter logistic regression. Assay quality was determined by z-factor calculation using positive and negative controls.

Row | SMILES | IC50 ([1]; category, Table 4) [nM] | IC50 ([2]; category, Table 4) [nM] | IC50 ([1]; Table 5) [nM] | IC50 ([2]; Table 5) [nM] | MLLT1% Degradation @ 0.01 μM [3] | MLLT1% Degradation @ 0.1 μM [3] | MLLT1% Degradation @ 1 μM [3] | IC50 [4] [nM]
1 | Cc1nn(C)c2cc(C(=O)Nc3cc4[nH]c([C@@H]5CCCN5C)c(Cl)c4cn3)ccc12 [Example 81, N-{3-chloro-2-[(2S)-1-methylpyrrolidin-2-yl]-1H-pyrrolo[3,2-c]pyridin-6-yl}-1,3-dimethylindazole-6-carboxamide] | 100 to 1000 | 1000 to 10000 |  |  |  |  |  | 
2 | Cc1nn(C)c2cc(C(=O)Nc3cc4[nH]c([C@H]5CCCN5C)c(Cl)c4cn3)ccc12 [Example 80, N-{3-chloro-2-[(2R)-1-methylpyrrolidin-2-yl]-1H-pyrrolo[3,2-c]pyridin-6-yl}-1,3-dimethylindazole-6-carboxamide] | ≤ 100 | ≤ 100 | 6 | 22 |  |  |  | 
3 | Cc1nn(C)c2cc(C(=O)Nc3cc4[nH]c([C@@H]5CCCN5C)cc4cn3)ccc12 (single isomer, unassigned) [Example 77] | 100 to 1000 | 1000 to 10000 |  |  |  |  |  | 
4 | CN1CCCC1c1[nH]c2cc(NC(=O)c3ccc4c(cnn4C)c3)ncc2c1F (single isomer, unassigned) [Example 87, N-{3-fluoro-2-[(rel-2R)-1-methylpyrrolidin-2-yl]-1H-pyrrolo[3,2-c]pyridin-6-yl}-1-methylindazole-5-carboxamide] | ≤ 100 | ≤ 100 |  |  |  |  |  | 
5 | CN1CCCC1c1[nH]c2cc(NC(=O)c3ccc4c(cnn4C)c3)ncc2c1F (single isomer, unassigned) [Example 86, N-{3-fluoro-2-[(rel-2S)-1-methylpyrrolidin-2-yl]-1H-pyrrolo[3,2-c]pyridin-6-yl}-1-methylindazole-5-carboxamide] | 1000 to 10000 | 1000 to 10000 |  |  |  |  |  | 
6 | CCN1CCCC1c1cc2cnc(NC(=O)c3ccc4c(C)nn(C)c4c3)cc2[nH]1 (single isomer, unassigned) [Example 85, N-{2-[(rel-2S)-1-ethylpyrrolidin-2-yl]-1H-pyrrolo[3,2-c]pyridin-6-yl}-1,3-dimethylindazole-6-carboxamide] | 1000 to 10000 |  |  |  |  |  |  | 
7 | Cc1nn(CC2CCN(c3ccc4c(c3)C(=O)N(C3CCC(=O)NC3=O)C4=O)CC2)c2cc(C(=O)Nc3cc4[nH]c([C@H]5CCCN5C)cc4cn3)ccc12 (stereo partly drawn) [Example 104, 1-((1-(2-(2,6-dioxopiperidin-3-yl)-1,3-dioxoisoindolin-5-yl)piperidin-4-yl)methyl)-3-methyl-N-(2-((R)-1-methylpyrrolidin-2-yl)-1H-pyrrolo[3,2-c]pyridin-6-yl)-1H-indazole-6-carboxamide] |  |  |  |  | B (Category B: 50%≤B<75% degradation) | A (Category A: A≥75% degradation) | C (Category C: 25%≤C<50% degradation) | < 100
8 | Cc1nn(CCCCCCCC#Cc2cccc3c2CN([C@@H]2CCC(=O)NC2=O)C3=O)c2cc(C(=O)Nc3cc4[nH]c([C@H]5CCCN5C)cc4cn3)c(F)cc12 (relative stereo) [Example 103, 1-(9-(2-((rel-R)-2,6-dioxopiperidin-3-yl)-1-oxoisoindolin-4-yl)non-8-yn-1-yl)-5-fluoro-3-methyl-N-(2-((R)-1-methylpyrrolidin-2-yl)-1H-pyrrolo[3,2-c]pyridin-6-yl)-1H-indazole-6-carboxamide] |  |  |  |  | A (Category A: A≥75% degradation) | A (Category A: A≥75% degradation) | A (Category A: A≥75% degradation) | < 100
9 | Cc1nn(CCCCCCCC#Cc2cccc3c2CN([C@H]2CCC(=O)NC2=O)C3=O)c2cc(C(=O)Nc3cc4[nH]c([C@H]5CCCN5C)cc4cn3)ccc12 (relative stereo) [Example 98, 1-(9-(2-((rel-S)-2,6-dioxopiperidin-3-yl)-1-oxoisoindolin-4-yl)non-8-yn-1-yl)-3-methyl-N-(2-((R)-1-methylpyrrolidin-2-yl)-1H-pyrrolo[3,2-c]pyridin-6-yl)-1H-indazole-6-carboxamide] |  |  |  |  | A (Category A: A≥75% degradation) | A (Category A: A≥75% degradation) | A (Category A: A≥75% degradation) | < 100
10 | Cc1nn(C2CCC(CCCC#Cc3cccc4c3CN(C3CCC(=O)NC3=O)C4=O)CC2)c2cc(C(=O)Nc3cc4[nH]c([C@H]5CCCN5C)cc4cn3)ccc12 (stereo partly drawn) [Example 74, 1-(4-(5-(2-(2,6-dioxopiperidin-3-yl)-1-oxoisoindolin-4-yl)pent-4-yn-1-yl)cyclohexyl)-3-methyl-N-(2-((R)-1-methylpyrrolidin-2-yl)-1H-pyrrolo[3,2-c]pyridin-6-yl)-1H-indazole-6-carboxamide] |  |  |  |  | B (Category B: 50%≤B<75% degradation) | B (Category B: 50%≤B<75% degradation) | A (Category A: A≥75% degradation) | < 100
